pIC50: −log10 of the molar value.
Tested on: 855422-203-R-J1-PDC complex spheroid viability
Assay: Anticancer human tumor 855422-203-R-J1-PDC patient-derived bladder carcinoma cell line growth inhibition [POLQ]
Settings: for pIC50: curve of first compound; for viability, T/C: stronger effect = lower value; active = viability on the fitted dose curve at most 10% of control; inactive = the rest
In short: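 Growth inhibition in 3D: complex spheroids (tumor PDC, HUVEC, MSC) treated with POLQ inhibitor combinations; where Cmax unknown, highest tested concentration 10 microM, except SN-38 at 1 microM.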

[1] = second compound 0.0316 µM, first compound 0.0316 µM
[2] = second compound 0.0316 µM, first compound 0.1 µM
[3] = second compound 0.0316 µM, first compound 0.316 µM
[4] = second compound 0.0316 µM, first compound 1 µM
[5] = second compound 0.0316 µM, first compound 3.16 µM
[6] = second compound 0.0316 µM, first compound 10 µM
[7] = second compound 0.1 µM, first compound 0.0316 µM
[8] = second compound 0.1 µM, first compound 0.1 µM
[9] = second compound 0.1 µM, first compound 0.316 µM
[10] = second compound 0.1 µM, first compound 1 µM
[11] = second compound 0.1 µM, first compound 3.16 µM
[12] = second compound 0.1 µM, first compound 10 µM
[13] = second compound 0.316 µM, first compound 0.0316 µM
[14] = second compound 0.316 µM, first compound 0.1 µM
[15] = second compound 0.316 µM, first compound 0.316 µM
[16] = second compound 0.316 µM, first compound 1 µM
[17] = second compound 0.316 µM, first compound 3.16 µM
[18] = second compound 0.316 µM, first compound 10 µM
[19] = second compound 1 µM, first compound 0.0316 µM
[20] = second compound 1 µM, first compound 0.1 µM
[21] = second compound 1 µM, first compound 0.316 µM
[22] = second compound 1 µM, first compound 1 µM
[23] = second compound 1 µM, first compound 3.16 µM
[24] = second compound 1 µM, first compound 10 µM
[25] = second compound 3.16 µM, first compound 0.0316 µM
[26] = second compound 3.16 µM, first compound 0.1 µM
[27] = second compound 3.16 µM, first compound 0.316 µM
[28] = second compound 3.16 µM, first compound 1 µM
[29] = second compound 3.16 µM, first compound 3.16 µM
[30] = second compound 3.16 µM, first compound 10 µM
[31] = second compound 10 µM, first compound 0.0316 µM
[32] = second compound 10 µM, first compound 0.1 µM
[33] = second compound 10 µM, first compound 0.316 µM
[34] = second compound 10 µM, first compound 1 µM
[35] = second compound 10 µM, first compound 3.16 µM
[36] = second compound 10 µM, first compound 10 µM
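Note: spheroids exposed to compounds for seven days before readout.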

C=CC(=O)N1CCN(c2nc(=O)n(-c3c(C)ccnc3C(C)C)c3nc(-c4c(O)cccc4F)c(F)cc23)C(C)C1 (stereo not given) + Cc1cccc(N(C)C(=O)C2C(O)CCN2c2nc(C)cc(C(F)(F)F)c2C#N)c1
< 5.00: pIC50 (second compound 0.0316 µM) | pIC50 (second compound 0.1 µM) | pIC50 (second compound 0.316 µM) | pIC50 (second compound 1 µM) | pIC50 (second compound 3.16 µM) | pIC50 (second compound 10 µM)
inactive: viability, T/C [1] 98.9% | viability, T/C [2] 112% | viability, T/C [3] 103% | viability, T/C [4] 107% | viability, T/C [5] 121% | viability, T/C [6] 114% | viability, T/C [7] 107% | viability, T/C [8] 105% | viability, T/C [9] 108% | viability, T/C [10] 114% | viability, T/C [11] 121% | viability, T/C [12] 111% | viability, T/C [13] 107% | viability, T/C [14] 89.5% | viability, T/C [15] 99.7% | viability, T/C [16] 106% | viability, T/C [17] 128% | viability, T/C [18] 121% | viability, T/C [19] 96.4% | viability, T/C [20] 108% | viability, T/C [21] 109% | viability, T/C [22] 107% | viability, T/C [23] 133% | viability, T/C [24] 107% | viability, T/C [25] 104% | viability, T/C [26] 96% | viability, T/C [27] 113% | viability, T/C [28] 105% | viability, T/C [29] 118% | viability, T/C [30] 117% | viability, T/C [31] 102% | viability, T/C [32] 108% | viability, T/C [33] 107% | viability, T/C [34] 109% | viability, T/C [35] 123% | viability, T/C [36] 114%

CC(C)n1c(=O)n(C)c2cnc3cc(F)c(-c4ccc(OCCCN5CCCCC5)nc4)cc3c21 + Cc1cccc(N(C)C(=O)C2C(O)CCN2c2nc(C)cc(C(F)(F)F)c2C#N)c1
inactive: viability, T/C [1] 110% | viability, T/C [2] 113% | viability, T/C [3] 97.1% | viability, T/C [4] 84.5% | viability, T/C [5] 87.9% | viability, T/C [6] 57.6% | viability, T/C [7] 96.1% | viability, T/C [8] 104% | viability, T/C [9] 95.4% | viability, T/C [10] 85.8% | viability, T/C [11] 91.8% | viability, T/C [12] 56.3% | viability, T/C [13] 111% | viability, T/C [14] 104% | viability, T/C [15] 99.6% | viability, T/C [16] 87.4% | viability, T/C [17] 85.1% | viability, T/C [18] 60% | viability, T/C [19] 99.2% | viability, T/C [20] 92.6% | viability, T/C [21] 109% | viability, T/C [22] 94.1% | viability, T/C [23] 86.4% | viability, T/C [24] 56.2% | viability, T/C [25] 109% | viability, T/C [26] 101% | viability, T/C [27] 112% | viability, T/C [28] 97.5% | viability, T/C [29] 89.3% | viability, T/C [30] 56% | viability, T/C [31] 95.9% | viability, T/C [32] 97.8% | viability, T/C [33] 99.5% | viability, T/C [34] 94.2% | viability, T/C [35] 81.4% | viability, T/C [36] 33.9%
5.17: pIC50 (second compound 10 µM)
< 5.00: pIC50 (second compound 0.0316 µM) | pIC50 (second compound 0.1 µM) | pIC50 (second compound 0.316 µM) | pIC50 (second compound 1 µM) | pIC50 (second compound 3.16 µM)

CCc1cc2c(N3CCc4c(cc(Cn5ccnc5)cc4-c4cn(C)nc4C(F)(F)F)C3=O)ccnc2c(OC)n1 + Cc1cccc(N(C)C(=O)C2C(O)CCN2c2nc(C)cc(C(F)(F)F)c2C#N)c1
5.04: pIC50 (second compound 3.16 µM) | pIC50 (second compound 10 µM)
< 5.00: pIC50 (second compound 0.1 µM) | pIC50 (second compound 0.316 µM) | pIC50 (second compound 1 µM)
inactive: viability, T/C [1] 111% | viability, T/C [2] 154% | viability, T/C [3] 110% | viability, T/C [4] 96.3% | viability, T/C [5] 70.9% | viability, T/C [6] 42.2% | viability, T/C [7] 99.9% | viability, T/C [8] 147% | viability, T/C [9] 113% | viability, T/C [10] 85.7% | viability, T/C [11] 79.6% | viability, T/C [12] 47.5% | viability, T/C [13] 102% | viability, T/C [14] 151% | viability, T/C [15] 107% | viability, T/C [16] 107% | viability, T/C [17] 80.4% | viability, T/C [18] 54.2% | viability, T/C [19] 125% | viability, T/C [20] 162% | viability, T/C [21] 110% | viability, T/C [22] 90% | viability, T/C [23] 79.7% | viability, T/C [24] 51.5% | viability, T/C [25] 138% | viability, T/C [26] 166% | viability, T/C [27] 103% | viability, T/C [28] 115% | viability, T/C [29] 74.7% | viability, T/C [30] 47.8% | viability, T/C [31] 116% | viability, T/C [32] 141% | viability, T/C [33] 158% | viability, T/C [34] 112% | viability, T/C [35] 88.3% | viability, T/C [36] 46.3%
5.13: pIC50 (second compound 0.0316 µM)

COc1cc2cc(C(=O)CCC(=O)O)sc2cc1OC + Cc1cccc(N(C)C(=O)C2C(O)CCN2c2nc(C)cc(C(F)(F)F)c2C#N)c1
< 5.00: pIC50 (second compound 0.0316 µM) | pIC50 (second compound 0.1 µM) | pIC50 (second compound 0.316 µM) | pIC50 (second compound 1 µM) | pIC50 (second compound 3.16 µM) | pIC50 (second compound 10 µM)
inactive: viability, T/C [1] 111% | viability, T/C [2] 118% | viability, T/C [3] 106% | viability, T/C [4] 94% | viability, T/C [5] 108% | viability, T/C [6] 113% | viability, T/C [7] 108% | viability, T/C [8] 118% | viability, T/C [9] 100% | viability, T/C [10] 108% | viability, T/C [11] 122% | viability, T/C [12] 125% | viability, T/C [13] 96.6% | viability, T/C [14] 149% | viability, T/C [15] 103% | viability, T/C [16] 95.5% | viability, T/C [17] 116% | viability, T/C [18] 102% | viability, T/C [19] 85.4% | viability, T/C [20] 131% | viability, T/C [21] 102% | viability, T/C [22] 129% | viability, T/C [23] 112% | viability, T/C [24] 89.2% | viability, T/C [25] 118% | viability, T/C [26] 122% | viability, T/C [27] 102% | viability, T/C [28] 126% | viability, T/C [29] 129% | viability, T/C [30] 120% | viability, T/C [31] 108% | viability, T/C [32] 127% | viability, T/C [33] 121% | viability, T/C [34] 114% | viability, T/C [35] 114% | viability, T/C [36] 114%

COc1ccc([C@@H](O)c2cc(-c3ncnc4cc(N5CCOCC5)ccc34)c(F)cc2Cl)nn1 + Cc1cccc(N(C)C(=O)C2C(O)CCN2c2nc(C)cc(C(F)(F)F)c2C#N)c1
inactive: viability, T/C [1] 98.5% | viability, T/C [2] 109% | viability, T/C [3] 107% | viability, T/C [4] 84.7% | viability, T/C [5] 66.1% | viability, T/C [6] 32.7% | viability, T/C [7] 93.1% | viability, T/C [8] 101% | viability, T/C [9] 83.8% | viability, T/C [10] 87.7% | viability, T/C [11] 63.9% | viability, T/C [12] 30.1% | viability, T/C [13] 101% | viability, T/C [14] 111% | viability, T/C [15] 104% | viability, T/C [16] 82.3% | viability, T/C [17] 58.1% | viability, T/C [18] 31.2% | viability, T/C [19] 98.8% | viability, T/C [20] 97.2% | viability, T/C [21] 99.7% | viability, T/C [22] 86.5% | viability, T/C [23] 49% | viability, T/C [24] 26.3% | viability, T/C [25] 108% | viability, T/C [26] 106% | viability, T/C [27] 89% | viability, T/C [28] 79.5% | viability, T/C [29] 56.2% | viability, T/C [30] 29.6% | viability, T/C [31] 96.4% | viability, T/C [32] 105% | viability, T/C [33] 96.5% | viability, T/C [34] 66.8% | viability, T/C [35] 47% | viability, T/C [36] 28.8%
5.38: pIC50 (second compound 3.16 µM)
5.29: pIC50 (second compound 0.1 µM)
5.37: pIC50 (second compound 0.316 µM)
5.52: pIC50 (second compound 1 µM)
5.63: pIC50 (second compound 10 µM)
5.27: pIC50 (second compound 0.0316 µM)

From PubChem BioAssay AID1963838 (Molecular Pharmacology Branch, DTP, NCI, 2024)
